According to patent publication US9120774B2 (University of Kansas, priority 2009, dated 2015):
Like-named read-outs stand apart in the source and are kept apart here. Blank lines part the entries; values can stand above or below the molecule they belong to.

Columns and labels:
Type in all cases: cell-based
[1] = tested on: PC-3 (androgen independent prostate cancer cells); experiment: Anti-proliferation activity against PC-3 cells; conditions: Homo sapiens, PC-3, n = 3, read-out: IC50 PC-3
Experimental: (§1) Upon completion of synthesis of library of compounds in Examples 23 and 24, the compounds were evaluated for anti-proliferative activity against SkBr3 (Her2 overexpressing breast cancer cells), MCF-7 (estrogen receptor positive breast cancer cells), HCT-116 (colon cancer cells characterized by wild-type p53), PL45 (pancreatic cancer cells), LNCaP (androgen sensitive prostate cancer cells) and PC-3 (androgen independent prostate cancer cells) cell lines. […] The monosubstituted benzamide variants improved activity.
Cells were maintained in a 1:1 mixture of Advanced DMEM/F12 (Gibco) supplemented with non-essential amino acids, L-glutamine (2 mM), streptomycin (500 ng/mL), penicillin (100 units/mL), and 10% FBS. Cells were grown to confluence in a humidified atmosphere (37° C., 5% CO2), seeded (2000/well, 100 μl) in 96-well plates, and allowed to attach overnight. […] […] Cells incubated in 1% DMSO were used at 100% proliferation, and values were adjusted accordingly. IC50 values were calculated from separate experiments performed in triplicate using GraphPad Prism.

[2] = tested on: MCF-7 (estrogen receptor positive breast cancer cells); experiment: Anti-proliferation activity against MCF-7 cells (MTS/PMS); conditions: Homo sapiens, MCF7, n = 3, read-out: IC50 MCF-7
In short: (§2)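 Cells seeded at 2000/well, attached overnight, then exposed to compound at varying concentrations (1% DMSO final) for 72 hours at 37° C. Viable cells read by MTS/PMS, normalised to 1% DMSO as 100% proliferation. IC50 from separate triplicate experiments.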

[3] = tested on: HCT-116 (colon cancer cells characterized by wild-type p53); experiment: Anti-proliferation activity against HCT-116 cells; conditions: Homo sapiens
Experimental: as §1

[4] = tested on: PL45 (pancreatic cancer cells); experiment: Anti-proliferation activity against PL45 cells
Experimental: as §1

[5] = tested on: LNCaP (androgen sensitive prostate cancer cells); experiment: Anti-proliferation activity against LNCaP cells; conditions: Homo sapiens, LNCaP, n = 3, read-out: IC50 LNCaP
Experimental: as §1
Cells were maintained in a 1:1 mixture of Advanced DMEM/F12 (Gibco) supplemented with non-essential amino acids, L-glutamine (2 mM), streptomycin (500 ng/mL), penicillin (100 units/mL), and 10% FBS. Cells were grown to confluence in a humidified atmosphere (37° C., 5% CO2), seeded (2000/well, 100 μl) in 96-well plates, and allowed to attach overnight. Compound or GDA at varying concentrations in DMSO (1% DMSO final concentration) was added, and cells were returned to the incubator for 72 hours. At 72 hours, the number of viable cells was determined using an MTS/PMS cell proliferation kit (Promega) per the manufacturer's instructions. Cells incubated in 1% DMSO were used at 100% proliferation, and values were adjusted accordingly. IC50 values were calculated from separate experiments performed in triplicate using GraphPad Prism.

[6] = tested on: SkBr3 (Her2 overexpressing breast cancer cells); experiment: Anti-proliferation activity against SkBr3 cells (MTS/PMS); conditions: Homo sapiens, SK-BR-3, n = 3, read-out: IC50 SkBr3
In short: as §2

[7] = Table 4, biaryl analogues, n = 3
[8] = Table 5, heterocyclic analogues
[9] = Table 5, heterocyclic analogues, n = 3

SMILES: COc1ccc(C(=O)Nc2cc3ccc(O[C@@H]4OC(C)(C)[C@H](OC)[C@@H](O)[C@H]4O)c(C)c3oc2=O)cc1-c1cccc(C)c1 [compound 30, N-(7-((2R,3R,4S,5R)-3,4-Dihydroxy-5-methoxy-6,6-dimethyltetrahydro-2H-pyran-2-yloxy)-8-methyl-2-oxo-2H-chromen-3-yl)-6-methoxy-3′-methylbiphenyl-3-carboxamide]
IC50 ([1]; Table 4, biaryl analogues): 50.7 ± 4.3 µM
IC50 ([2]; Table 4, biaryl analogues): 20.4 ± 0.8 µM
IC50 [3, 7]: 26.4 ± 0.6 µM
IC50 [4, 7]: 4.2 ± 1 µM
IC50 ([5]; Table 4, biaryl analogues): 4.2 ± 1.2 µM
IC50 ([6]; Table 4, biaryl analogues): 20.4 ± 3.5 µM

SMILES: CO[C@@H]1[C@@H](O)[C@@H](O)[C@H](Oc2ccc3cc(NS(=O)(=O)c4ccccc4)c(=O)oc3c2C)OC1(C)C [compound 21, N-(7-((2R,3R,4S,5R)-3,4-Dihydroxy-5-methoxy-6,6-dimethyltetrahydro-2H-pyran-2-yloxy)-8-methyl-2-oxo-2H-chromen-3-yl)benzenesulfonamide]
IC50 ([1]; Table 3): > 100 µM
IC50 ([2]; Table 3): > 100 µM
IC50 ([3]; Table 3, n = 3): > 100 µM
IC50 ([4]; Table 3, n = 3): > 100 µM
IC50 ([5]; Table 3): > 100 µM
IC50 ([6]; Table 3): > 100 µM

SMILES: COc1ccc(C(=O)Nc2cc3ccc(O[C@@H]4OC(C)(C)[C@H](OC)[C@@H](O)[C@H]4O)c(C)c3oc2=O)cc1-c1ccccc1C [compound 29, N-(7-((2R,3R,4S,5R)-3,4-Dihydroxy-5-methoxy-6,6-dimethyltetrahydro-2H-pyran-2-yloxy)-8-methyl-2-oxo-2H-chromen-3-yl)-6-methoxy-2′-methylbiphenyl-3-carboxamide]
IC50 ([1]; Table 4, biaryl analogues): 64.7 ± 17.1 µM
IC50 ([2]; Table 4, biaryl analogues): 18.9 ± 2.7 µM
IC50 [3, 7]: 37.5 ± 3.4 µM
IC50 [4, 7]: 6.8 ± 1.5 µM
IC50 ([5]; Table 4, biaryl analogues): 22.6 ± 3.3 µM
IC50 ([6]; Table 4, biaryl analogues): 32.4 ± 5.1 µM

SMILES: COc1ccc(C(=O)Nc2cc3ccc(O[C@@H]4OC(C)(C)[C@H](OC)[C@@H](O)[C@H]4O)c(C)c3oc2=O)cc1-c1cccc(O)c1 [compound 36, N-(7-((2R,3R,4S,5R)-3,4-Dihydroxy-5-methoxy-6,6-dimethyltetrahydro-2H-pyran-2-yloxy)-8-methyl-2-oxo-2H-chromen-3-yl)-3′-hydroxy-6-methoxybiphenyl-3-carboxamide]
IC50 ([1]; Table 4, biaryl analogues): 14.7 ± 2.4 µM
IC50 ([2]; Table 4, biaryl analogues): 5.3 ± 1.5 µM
IC50 [3, 7]: 4.5 ± 1.2 µM
IC50 [4, 7]: 1.1 µM
IC50 ([5]; Table 4, biaryl analogues): 2.5 ± 1.2 µM
IC50 ([6]; Table 4, biaryl analogues): 2.9 ± 1.2 µM

SMILES: COc1ccc(C(=O)Nc2cc3ccc(O[C@@H]4OC(C)(C)[C@H](OC)[C@@H](O)[C@H]4O)c(C)c3oc2=O)cc1-c1ccccc1 [compound 28, N-(7-((2R,3R,4S,5R)-3,4-Dihydroxy-5-methoxy-6,6-dimethyltetrahydro-2H-pyran-2-yloxy)-8-methyl-2-oxo-2H-chromen-3-yl)-6-methoxybiphenyl-3-carboxamide]
IC50 ([1]; Table 4, biaryl analogues): 25.4 ± 5.2 µM
IC50 ([2]; Table 4, biaryl analogues): 19.5 ± 2.3 µM
IC50 [3, 7]: 11.4 µM
IC50 [4, 7]: 2.8 ± 0.4 µM
IC50 ([5]; Table 4, biaryl analogues): 1.9 ± 0.2 µM
IC50 ([6]; Table 4, biaryl analogues): 16.5 ± 4.7 µM

SMILES: CO[C@@H]1[C@@H](O)[C@@H](O)[C@H](Oc2ccc3cc(NC(=O)c4ccccc4[N+](=O)[O-])c(=O)oc3c2C)OC1(C)C [compound 15, N-(7-((2R,3R,4S,5R)-3,4-Dihydroxy-5-methoxy-6,6-dimethyltetrahydro-2H-pyran-2-yloxy)-8-methyl-2-oxo-2H-chromen-3-yl)-2-nitrobenzamide]
IC50 ([2]; Table 2): 28.7 ± 4.8 µM
IC50 ([3]; Table 2, n = 3): 44.3 ± 4.8 µM
IC50 ([4]; Table 2, n = 3): 20.1 ± 4.7 µM
IC50 ([5]; Table 2): 16.8 ± 0.8 µM
IC50 ([6]; Table 2): 21.8 ± 0.8 µM

The next lines start with the values.

IC50 ([1]; Table 2): 11.6 ± 1.4 µM
IC50 ([2]; Table 2): 18 ± 3.8 µM
IC50 ([3]; Table 2, n = 3): 12.8 ± 2.3 µM
IC50 ([4]; Table 2, n = 3): 1.6 ± 0.2 µM
IC50 ([5]; Table 2): 1.6 ± 0.5 µM
IC50 ([6]; Table 2): 13 ± 1.4 µM
SMILES: CO[C@@H]1[C@@H](O)[C@@H](O)[C@H](Oc2ccc3cc(NC(=O)c4cccc(-c5ccccc5)c4)c(=O)oc3c2C)OC1(C)C [compound 13, N-(7-((2R,3R,4S,5R)-3,4-Dihydroxy-5-methoxy-6,6-dimethyltetrahydro-2H-pyran-2-yloxy)-8-methyl-2-oxo-2H-chromen-3-yl)biphenyl-3-carboxamide]

IC50 [1, 8]: 18.8 ± 4.4 µM
IC50 [2, 8]: 28.6 ± 4.1 µM
IC50 [3, 9]: 9.6 ± 0.3 µM
IC50 [4, 9]: 3.8 ± 0.4 µM
IC50 [5, 8]: 7.9 ± 1.1 µM
SMILES: CO[C@@H]1[C@@H](O)[C@@H](O)[C@H](Oc2ccc3cc(NC(=O)c4cc5ccccc5o4)c(=O)oc3c2C)OC1(C)C [compound 43, N-(7-((2R,3R,4S,5R)-3,4-Dihydroxy-5-methoxy-6,6-dimethyltetrahydro-2H-pyran-2-yloxy)-8-methyl-2-oxo-2H-chromen-3-yl)benzofuran-2-carboxamide]

IC50 ([1]; Table 3): 43.3 ± 13.4 µM
IC50 ([2]; Table 3): 16.4 ± 0.4 µM
IC50 ([3]; Table 3, n = 3): 13.2 ± 0.6 µM
IC50 ([4]; Table 3, n = 3): 8.5 ± 1.7 µM
IC50 ([5]; Table 3): 10.4 ± 0.2 µM
IC50 ([6]; Table 3): 21.4 ± 2.2 µM
SMILES: CO[C@@H]1[C@@H](O)[C@@H](O)[C@H](Oc2ccc3cc(NC(=O)Cc4ccccc4)c(=O)oc3c2C)OC1(C)C [compound 22, N-(7-((2R,3R,4S,5R)-3,4-Dihydroxy-5-methoxy-6,6-dimethyltetrahydro-2H-pyran-2-yloxy)-8-methyl-2-oxo-2H-chromen-3-yl)-2-phenylacetamide]

IC50 ([1]; Table 2): 19.3 ± 5.1 µM
IC50 ([2]; Table 2): 8.1 ± 6 µM
IC50 ([3]; Table 2, n = 3): 3.6 ± 2 µM
IC50 ([4]; Table 2, n = 3): 1.6 ± 0.2 µM
IC50 ([5]; Table 2): 44.9 ± 31.6 µM
IC50 ([6]; Table 2): 16.3 ± 1.6 µM
SMILES: CO[C@@H]1[C@@H](O)[C@@H](O)[C@H](Oc2ccc3cc(NC(=O)c4ccc(-c5ccccc5)cc4)c(=O)oc3c2C)OC1(C)C [compound 14, N-(7-((2R,3R,4S,5R)-3,4-Dihydroxy-5-methoxy-6,6-dimethyltetrahydro-2H-pyran-2-yloxy)-8-methyl-2-oxo-2H-chromen-3-yl)biphenyl-4-carboxamide]

IC50 [1, 8]: 67 ± 20.2 µM
IC50 [2, 8]: 47.8 ± 4.2 µM
IC50 [3, 9]: 37.3 ± 1 µM
IC50 [4, 9]: 13.2 ± 1 µM
IC50 [5, 8]: 50.1 ± 3.3 µM
IC50 [6, 8]: 65.9 ± 15.8 µM
SMILES: CO[C@@H]1[C@@H](O)[C@@H](O)[C@H](Oc2ccc3cc(NC(=O)c4cccnc4)c(=O)oc3c2C)OC1(C)C [compound 41, N-(7-((2R,3R,4S,5R)-3,4-Dihydroxy-5-methoxy-6,6-dimethyltetrahydro-2H-pyran-2-yloxy)-8-methyl-2-oxo-2H-chromen-3-yl)nicotinamide]

IC50 ([1]; Table 2): 67.6 ± 9.7 µM
IC50 ([2]; Table 2): 20.6 ± 0.4 µM
IC50 ([3]; Table 2, n = 3): 13 ± 2.1 µM
IC50 ([4]; Table 2, n = 3): 3.4 ± 0.6 µM
IC50 ([5]; Table 2): 72 ± 4 µM
IC50 ([6]; Table 2): 21.5 ± 1.4 µM
SMILES: CO[C@@H]1[C@@H](O)[C@@H](O)[C@H](Oc2ccc3cc(NC(=O)c4ccccc4)c(=O)oc3c2C)OC1(C)C [compound 8, N-(7-((2R,3R,4S,5R)-3,4-Dihydroxy-5-methoxy-6,6-dimethyltetrahydro-2H-pyran-2-yloxy)-8-methyl-2-oxo-2H-chromen-3-yl)benzamide]

IC50 [1, 8]: 7.4 ± 2.1 µM
IC50 [2, 8]: 96.3 ± 3.7 µM
IC50 [3, 9]: 78.9 ± 3.5 µM
IC50 [4, 9]: 33.2 ± 0.7 µM
IC50 [5, 8]: > 100 µM
SMILES: CO[C@@H]1[C@@H](O)[C@@H](O)[C@H](Oc2ccc3cc(NC(=O)c4cc5ccccc5s4)c(=O)oc3c2C)OC1(C)C [compound 44, N-(7-((2R,3R,4S,5R)-3,4-Dihydroxy-5-methoxy-6,6-dimethyltetrahydro-2H-pyran-2-yloxy)-8-methyl-2-oxo-2H-chromen-3-yl)benzo[b]thiophene-2-carboxamide]

IC50 [2, 8]: > 100 µM
IC50 [3, 9]: > 100 µM
IC50 [4, 9]: 19.2 ± 2.5 µM
IC50 [5, 8]: 34.8 ± 16 µM
IC50 [6, 8]: > 100 µM
SMILES: CO[C@@H]1[C@@H](O)[C@@H](O)[C@H](Oc2ccc3cc(NC(=O)c4ccncc4)c(=O)oc3c2C)OC1(C)C [compound 42, N-(7-((2R,3R,4S,5R)-3,4-Dihydroxy-5-methoxy-6,6-dimethyltetrahydro-2H-pyran-2-yloxy)-8-methyl-2-oxo-2H-chromen-3-yl)isonicotinamide]
